Source: ChEMBL document CHEMBL1201862, “PubChem BioAssay data set” (2004)
Calls of active or inactive are those of the source. Cut-off read from the data, not from the text of the source: actives have a measured IC50 and inactives only a lower limit.

Molecular target: Envelope glycoprotein gp160 (Human immunodeficiency virus 1, UniProt Q6QLK5)
Experiment: cell-free HIV fusion peptide-binding blockers – biochemical, uHTS, fluorescence dequenching, […] (AID 1986)

Sequence of Envelope glycoprotein gp160 (Q6QLK5 whole entry, the tested form may be a part): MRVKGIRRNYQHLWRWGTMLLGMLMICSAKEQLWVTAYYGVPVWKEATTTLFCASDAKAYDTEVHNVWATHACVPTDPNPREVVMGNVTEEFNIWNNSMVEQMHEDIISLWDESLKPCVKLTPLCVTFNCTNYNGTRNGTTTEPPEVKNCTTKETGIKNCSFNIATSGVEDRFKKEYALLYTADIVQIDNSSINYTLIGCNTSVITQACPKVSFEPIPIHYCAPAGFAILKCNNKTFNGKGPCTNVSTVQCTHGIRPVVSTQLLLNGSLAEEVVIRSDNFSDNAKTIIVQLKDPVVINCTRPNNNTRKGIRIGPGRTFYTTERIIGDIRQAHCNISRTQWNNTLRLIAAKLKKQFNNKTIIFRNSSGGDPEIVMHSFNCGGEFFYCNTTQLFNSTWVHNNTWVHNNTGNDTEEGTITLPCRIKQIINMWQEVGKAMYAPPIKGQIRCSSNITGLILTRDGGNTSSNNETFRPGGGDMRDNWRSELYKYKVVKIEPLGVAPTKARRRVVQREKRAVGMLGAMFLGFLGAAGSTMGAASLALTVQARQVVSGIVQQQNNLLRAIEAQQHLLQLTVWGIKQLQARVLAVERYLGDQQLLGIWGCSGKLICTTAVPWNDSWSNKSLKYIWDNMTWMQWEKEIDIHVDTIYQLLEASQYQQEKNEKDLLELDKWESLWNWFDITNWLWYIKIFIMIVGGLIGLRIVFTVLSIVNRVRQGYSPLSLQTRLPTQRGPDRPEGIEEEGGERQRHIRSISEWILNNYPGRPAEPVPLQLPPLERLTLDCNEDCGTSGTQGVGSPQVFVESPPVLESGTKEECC

Row | Structure (SMILES) | IC50
1 | COc1cc(/C=C(\C#N)c2nc3cc(C)ccc3[nH]2)cc([N+](=O)[O-])c1O | 18.7 µM (active)
2 | CCc1ccc(/C=C2\SC(=S)N(CCCC(=O)Nc3ccccc3C(=O)O)C2=O)cc1 | 12.4 µM (active)
3 | CCOc1ccc(C2C(C(=O)Nc3ccccc3)=C(C)N=c3s/c(=C/c4cccc(OCC(=O)O)c4)c(=O)n32)cc1 (stereo not drawn) | 28.8 µM (active)
